# Experiments:
# Assay type in all cases: in vivo, rat
# HSP60 = HSP60 induction in the heart after oral administration (Western blotting); details: oral 200 mg/kg, 24 hours after administration, FIG. 3(B)
# Description: (§1) An emulsion of 100% by weight of geranylgeranylacetone (GGA) with 5% by weight of gum arabic and 0.008% by weight of tocopherol was given orally to the rats described above. The oral dosages were 50 mg/kg, 100 mg/kg, 200 mg/kg and 400 mg/kg (GGA groups). […] The vehicle was administered orally to the Control Group.
# (§2) Next, the hearts were removed from the killed rats and frozen in liquid nitrogen.
# (§3) Western blotting was then performed (Maloyan A, Palmon A, Horowitz M. Heat acclimation increases the basal HSP70 level and alters its production dynamics during heat stress. Am J Physiol 1999; 276:R1506-R1515). The frozen hearts were homogenized with SDS (sodium dodecyl sulfate) buffer, centrifuged and boiled.
# (§4) The total protein concentration of the myocardium was quantified by the Bradford method (Bradford M M. A rapid and sensitive method for quantitation of microgram quantities of protein utilizing the principle of protein-dye binding. Anal Biochem 1976; 72:248-254). The prepared hearts were then diluted in electrolyte buffer. […] The proteins were detected by exposing the ECL cells with Hyperfilm (Amersham Pharmacia, Buckinghamshire, UK). Based on this, the amount of proteins on the immunoblots was quantified using National Institutes of Health (NIH) imaging software. […]
# HSP70 = HSP70 induction in the heart after oral administration (Western blotting), Example 1
# Description: Male Sprague-Dawley rats (220-250 g) were anesthetized with pentobarbital (20 mg/kg, i.p.). They were subjected to whole-body hyperthermia by soaking for 10 minutes in a bath in which the water temperature was maintained at 43° C. (Heat Stress Group), with their heads on pillows to avoid aspiration of water. rectal temperatures were measured as body temperatures rose throughout the whole-body hyperthermia.
# as §1
# To examine the time-dependent expression of HSP70, rats were killed by deep anesthesia with pentobarbital (50 mg/kg, i.v.) 6, 12, 24 and 48 hours after administration of the GGA or vehicle or 6, 12, 24 and 48 hours after heat stress.
# as §2, §3
# The total protein concentration of the myocardium was quantified by the Bradford method (Bradford M M. A rapid and sensitive method for quantitation of microgram quantities of protein utilizing the principle of protein-dye binding. Anal Biochem 1976; 72:248-254). The prepared hearts were then diluted in electrolyte buffer. Total protein in each heart was subjected to electrophoresis on 8.5% SDS-Polyacrylamide gel (SDS-PAGE), and transferred to a PVDF (polyvinylidene fluoride) membrane. After blocking with 0.5% nonfat milk, the PVDF membranes were incubated with antibodies. The proteins were detected by exposing the ECL cells with Hyperfilm (Amersham Pharmacia, Buckinghamshire, UK). Based on this, the amount of proteins on the immunoblots was quantified using National Institutes of Health (NIH) imaging software.
# HSP27 = HSP27 induction in the heart after oral administration (Western blotting); details: oral 200 mg/kg, 24 hours after administration, FIG. 3(A)
# Description: as §1, §2, §3, §4
# thioredoxin = experiment: Thioredoxin induction in the heart after oral administration (Western blotting); details: oral 200 mg/kg, 24 hours after administration, FIG. 4(B)
# From the text: Monoclonal IgG antibody cross-reactive to HSP70, HSP60 and HSP27 antibodies was purchased from Stressgen Biotechnologies Corporation ([…], Canada). Primary antibodies of nitric oxide synthase (NOS) or in other words inducible NOS (iNOS), endothelial NOS (eNOS) and neuronal NOS (nNOS) were purchased from Transduction Laboratories (Lexington, Ky.). The primary antibody of thioredoxin was kindly provided by Professor Yodoi of Kyoto University.
# as §1
# Next, the hearts were removed from the killed rats and frozen in liquid nitrogen. […]
# The total protein concentration of the myocardium was quantified by the Bradford method (Bradford M M. A rapid and sensitive method for quantitation of microgram quantities of protein utilizing the principle of protein-dye binding. Anal Biochem 1976; 72:248-254). […] The proteins were detected by exposing the ECL cells with Hyperfilm (Amersham Pharmacia, Buckinghamshire, UK). Based on this, the amount of proteins on the immunoblots was quantified using National Institutes of Health (NIH) imaging software. […]
# [1] = oral, 24 hours after administration, FIG. 2
smiles,measurement,setting,value
"CC(=O)CCC=C(C)CCC=C(C)CCC=C(C)CCC=C(C)C [GGA, 6, 10, 14, 18-tetramethyl-5,9, 13, 17-nonadecatetraen-2-one]",HSP60 expression versus control group,HSP60,significantly decreased
same,detected (induced) amount of HSP70 in the heart versus dosage,"HSP70; oral 0-400 mg/kg, hearts removed 24 hours after administration, FIG. 2",increased as the dosage increased
same,detected amount of HSP70 in the heart after 48 hours,"HSP70; oral 200 mg/kg, 48 hours after administration, FIG. 1",decreased
same,time at which the detected (induced) amount of HSP70 peaked,"HSP70; oral 200 mg/kg, FIG. 1",24 h
same,time from which HSP70 was detected in the heart,"HSP70; oral 200 mg/kg, FIG. 1",about 6 hours
same,detected amount of HSP70 above 400 mg/kg,HSP70; [1],No increase in detected amount was seen
same,dosage at which HSP70 induction peaked,HSP70; [1],200 mg/kg
same,HSP27 expression versus vehicle,HSP27,no obvious difference
same,thioredoxin induction in the heart,thioredoxin,not induced
